From ChEMBL document CHEMBL5512683, “Discovery of Novel ERα and Aromatase Dual-Targeting PROTAC Degraders to Overcome Endocrine-Resistant Breast Cancer” (J Med Chem, 2024)
pIC50, pKi: −log10 of the molar value. The source made the active and inactive calls. The calls are words filed in the database; no cut-off is given here.

Key:
[1] = system: MCF7; assay: Induction of degradation of MYC protein in human MCF7 cells at 0.5 to 5 uM by Western blot analysis; assay type: functional, cell-based; settings: dose 0.5-5 µM
[2] = system: MCF7; assay: In vivo PROTAC activity in ERalpha/VHL E3 ligase in human MCF7 cell xenografted in Balb/c mouse model assessed as reduction in ERalpha level in tumor at 5 mg/kg, ip every other day measured upto 20 days; assay type: functional, organism-based; settings: time <= 20.0 day
[3] = system: MCF7; assay: Induction of degradation of MYC protein in human MCF7 cells harboring EGFR at 0.5 to 5 uM by Western blot analysis; assay type: functional, cell-based; settings: dose 0.5-5 µM
[4] = Toxicity in Balb/c mouse xenografted with human MCF7 cells assessed as cellular morphology in liver at 5 mg/kg, ip every other day measured upto 20 days; assay type: organism-based; settings: in vivo, 480 h, time < 20 day
[5] = system: MCF7; assay: Anti-proliferative activity against ERalpha positive human MCF7 cells incubated for 96 hrs by CCK8 assay; settings: MCF7, 96 h
[6] = Toxicity in Balb/c mouse xenografted with human MCF7 cells assessed as cellular morphology in heart at 5 mg/kg, ip every other day measured upto 20 days; assay type: organism-based; settings: in vivo, 480 h, time < 20 day
[7] = Toxicity in Balb/c mouse xenografted with human MCF7 cells assessed as cellular morphology in kidney at 5 mg/kg, ip every other day measured upto 20 days; assay type: organism-based; settings: in vivo, 480 h, time < 20 day
[8] = system: MCF7; assay: Reduction in ERS1 mRNA expression in resistant human MCF7 cells harboring ERalpha D538G mutant at 5 uM by real-time quantitative polymerase chain reaction (RT-qPCR) analysis; assay type: functional, cell-based
[9] = system: MCF7; assay: Reduction in MYC mRNA expression in resistant human MCF7 cells harboring ERalpha Y537S mutant at 5 uM by real-time quantitative polymerase chain reaction (RT-qPCR) analysis; assay type: functional, cell-based
[10] = system: MCF7; assay: Reduction in ERS1 mRNA expression in resistant human MCF7 cells harboring ERalpha Y537S mutant at 5 uM by real-time quantitative polymerase chain reaction (RT-qPCR) analysis; assay type: functional, cell-based
[11] = Toxicity in Balb/c mouse xenografted with human MCF7 cells assessed as body weight loss at 5 mg/kg, ip every other day measured upto 20 days; assay type: organism-based; settings: in vivo, 480 h, time < 20 day
[12] = system: MCF7; assay: Reduction in MYC mRNA expression in resistant human MCF7 cells harboring EGFR at 5 uM by real-time quantitative polymerase chain reaction (RT-qPCR) analysis; assay type: functional, cell-based
[13] = system: MCF7; assay: In vivo antitumor activity against human MCF7 cells xenografted in Balb/c mouse model assessed as reduction in number of Ki67 positive cells in tumor at 5 mg/kg, ip every other day measured upto 20 days; assay type: functional, organism-based; settings: time <= 20.0 day
[14] = system: MCF7; assay: Induction of cell cycle arrest in human MCF7 cells assessed as accumulation of cells at G2/M phase at 5 uM incubated for 48 hrs by flow cytometry (reference value: 54.10%); assay type: functional
[15] = system: MCF7; assay: Antiproliferative activity against human resistant MCF7 cells harboring ERalpha D538G mutant at LBD assessed as cell viability incubated for 96 hrs by CCK8 assay; settings: MCF7, 96 h
[16] = system: MCF7; assay: Induction of degradation of MYC protein in human MCF7 cells harboring ERalpha Y537S mutant at 0.5 to 5 uM by Western blot analysis; assay type: functional, cell-based; settings: dose 0.5-5 µM
[17] = system: MCF7; assay: Antiproliferative activity against human resistant MCF7 cells harboring ERalpha Y537S mutant at LBD assessed as cell viability incubated for 96 hrs by CCK8 assay; settings: MCF7, 96 h
[18] = system: MCF7; assay: Reduction in ERS1 mRNA expression in resistant human MCF7 cells harboring EGFR at 5 uM by real-time quantitative polymerase chain reaction (RT-qPCR) analysis; assay type: functional, cell-based
[19] = system: MCF7; assay: In vivo PROTAC activity in aromatase/VHL E3 ligase in human MCF7 cell xenografted in Balb/c mouse model assessed as reduction in ARO level in tumor at 5 mg/kg, ip every other day measured upto 20 days; assay type: functional, organism-based; settings: time <= 20.0 day
[20] = Anti-proliferative activity against human MCF-10A cells incubated for 96 hrs by CCK8 assay; assay type: toxicity, cell-based
[21] = molecular target: T1, von Hippel-Lindau disease tumor suppressor/Aromatase (Homo sapiens, UniProt P11511+P40337); assay: PROTAC activity at human ARO/VHL E3 ligase in human MCF-7 cells assessed as degradation of ARO incubated for 24 hrs by Western blot analysis; assay type: cell-based; settings: mcf7, 24 h
T1 sequence (P40337 whole entry, one chain of several): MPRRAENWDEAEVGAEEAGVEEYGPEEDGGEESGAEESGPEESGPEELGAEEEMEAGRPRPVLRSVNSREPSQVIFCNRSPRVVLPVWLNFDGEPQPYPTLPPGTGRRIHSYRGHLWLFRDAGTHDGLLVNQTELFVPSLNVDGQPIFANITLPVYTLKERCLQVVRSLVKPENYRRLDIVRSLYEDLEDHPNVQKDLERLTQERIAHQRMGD

[22] = system: MCF7; assay: Induction of degradation of MYC protein in human MCF7 cells harboring ERalpha D538G mutant at 0.5 to 5 uM by Western blot analysis; assay type: functional, cell-based; settings: dose 0.5-5 µM
[23] = system: MCF7; assay: Antiproliferative activity against human resistant MCF7 cells harboring EGFR assessed as cell viability incubated for 96 hrs by CCK8 assay; settings: MCF7, 96 h
[24] = molecular target: T1, von Hippel-Lindau disease tumor suppressor/Aromatase; assay: PROTAC activity at human ARO/VHL E3 ligase in human MCF-7 cells assessed as degradation of ARO at 1 uM incubated for 24 hrs in presence of MG132 by Western blot analysis; assay type: cell-based; settings: mcf7, 24 h
[25] = molecular target: T2, Aromatase (Homo sapiens, UniProt P11511); assay: Inhibition of recombinant human aromatase using ARO substrate/NADP+ mixture by fluorescence assay
T2 sequence (P11511 whole entry): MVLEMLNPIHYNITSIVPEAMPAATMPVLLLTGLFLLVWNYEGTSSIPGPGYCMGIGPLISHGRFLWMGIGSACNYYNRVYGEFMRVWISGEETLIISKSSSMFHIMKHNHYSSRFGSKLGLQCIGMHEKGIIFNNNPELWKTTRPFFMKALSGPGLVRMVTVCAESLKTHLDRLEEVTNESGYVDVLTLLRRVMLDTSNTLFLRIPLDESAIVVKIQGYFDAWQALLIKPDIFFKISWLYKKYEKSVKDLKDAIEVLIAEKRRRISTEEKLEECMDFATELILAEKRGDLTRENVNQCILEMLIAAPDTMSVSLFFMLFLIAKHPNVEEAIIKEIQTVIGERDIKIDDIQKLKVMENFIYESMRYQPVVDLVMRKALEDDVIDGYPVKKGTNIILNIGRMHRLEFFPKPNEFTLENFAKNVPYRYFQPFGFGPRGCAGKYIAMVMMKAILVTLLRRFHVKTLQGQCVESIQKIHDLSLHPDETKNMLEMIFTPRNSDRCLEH

[26] = system: MCF7; assay: Reduction in MYC mRNA expression in resistant human MCF7 cells harboring ERalpha D538G mutant at 5 uM by real-time quantitative polymerase chain reaction (RT-qPCR) analysis; assay type: functional, cell-based
[27] = molecular target: Estrogen receptor beta (Homo sapiens, UniProt Q92731); assay: Binding affinity to human ERbeta assessed as inhibition constant incubated under dark condition for 2 hrs by competitive fluorometric binding assay
Estrogen receptor beta, sequence (Q92731 whole entry): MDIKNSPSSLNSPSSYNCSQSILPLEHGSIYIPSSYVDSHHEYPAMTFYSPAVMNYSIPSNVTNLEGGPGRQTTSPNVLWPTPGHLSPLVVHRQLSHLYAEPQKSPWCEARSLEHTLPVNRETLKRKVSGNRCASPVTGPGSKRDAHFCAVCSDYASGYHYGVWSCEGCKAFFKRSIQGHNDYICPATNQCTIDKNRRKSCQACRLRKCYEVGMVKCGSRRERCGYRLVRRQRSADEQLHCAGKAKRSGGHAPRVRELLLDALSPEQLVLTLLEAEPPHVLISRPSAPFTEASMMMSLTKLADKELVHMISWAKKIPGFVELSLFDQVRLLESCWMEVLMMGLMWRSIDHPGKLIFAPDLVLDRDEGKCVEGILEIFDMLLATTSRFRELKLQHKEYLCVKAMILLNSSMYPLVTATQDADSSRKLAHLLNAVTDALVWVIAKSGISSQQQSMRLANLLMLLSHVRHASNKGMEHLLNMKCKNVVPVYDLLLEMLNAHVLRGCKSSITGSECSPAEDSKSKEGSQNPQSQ

[28] = molecular target: T1, von Hippel-Lindau disease tumor suppressor/Aromatase; assay: PROTAC activity at human ARO/VHL E3 ligase in human MCF-7 cells assessed as degradation of ARO at 1 uM incubated for 24 hrs by Western blot analysis; assay type: cell-based; settings: mcf7, 24 h
[29] = Toxicity in Balb/c mouse xenografted with human MCF7 cells assessed as cellular morphology in spleen at 5 mg/kg, ip every other day measured upto 20 days; assay type: organism-based; settings: in vivo, 480 h, time < 20 day
[30] = system: MCF7; assay: Antitumor activity against human MCF7 cells xenografted in Balb/c mouse model assessed as tumor growth inhibition at 5 mg/kg, ip every other day measured upto 20 days; assay type: functional, organism-based; settings: time <= 20.0 day
[31] = system: MCF7; assay: Reduction in ERS1 mRNA expression in resistant human MCF7 cells at 5 uM by real-time quantitative polymerase chain reaction (RT-qPCR) analysis; assay type: functional, cell-based
[32] = molecular target: T1, von Hippel-Lindau disease tumor suppressor/Aromatase; assay: PROTAC activity at human ARO/VHL E3 ligase in resistant human MCF-7 cells harboring EGFR assessed as degradation of ARO at 0.5 to 10 uM incubated for 24 hrs by Western blot analysis; assay type: cell-based; settings: mcf7, 24 h, dose 0.5-10 µM
[33] = system: MCF7; assay: Reduction in MYC mRNA expression in resistant human MCF7 cells at 5 uM by real-time quantitative polymerase chain reaction (RT-qPCR) analysis; assay type: functional, cell-based

Structure (SMILES)	pIC50 [5]	Activity [8]	Activity [9]	Activity [10]	Activity [12]	pIC50 [15]	pIC50 [17]	Activity [18]	IC50 at 96 h [20]	Activity [21]	pIC50 [23]	pIC50 [25]	Activity [26]	Activity [28]	also measured
Cc1ncsc1-c1ccc([C@H](C)NC(=O)[C@@H]2C[C@@H](O)CN2C(=O)[C@@H](NC(=O)CCCCCOc2ccc(N(CC(F)(F)F)S(=O)(=O)C3CC4OC3C(c3ccc(-n5ccnc5)cc3)=C4c3ccc(O)cc3)cc2)C(C)(C)C)cc1 (some centres not stated)	6.27	Active	Active	Active	Active	6.51	5.64	Active	> 100 µM	Dose-Dependent Effect	7.12	5.34	Active	Active	Activity [1]: Active; Activity [2]: Active; Activity [3]: inactive; Activity [4]: Non-Toxic; Activity [6]: Non-Toxic; Activity [7]: Non-Toxic; Activity [11]: Non-Toxic; Activity [13]: Active; Activity [14]: 66.31%; Activity [16]: inactive; Activity [19]: Active; Activity [22]: inactive; Activity [24]: Not Active; pKi [27]: < 4.10; Activity [29]: Non-Toxic; Activity [30]: Active
Cc1ncsc1-c1ccc([C@H](C)NC(=O)[C@@H]2C[C@@H](O)CN2C(=O)[C@@H](NC(=O)COCCOCCOc2ccc(N(CC(F)(F)F)S(=O)(=O)C3CC4OC3C(c3ccc(-n5ccnc5)cc3)=C4c3ccc(O)cc3)cc2)C(C)(C)C)cc1 (some centres not stated)	6.46	inactive	Active	inactive	Active	5.00	5.68	inactive	> 100 µM	Dose-Dependent Effect	5.36	6.49	Active	Active	Activity [31]: inactive; Activity [32]: Active; Activity [33]: inactive
